This note sets out measurements from the Kinase Knowledgebase extract (Sharma et al. 2016).

In general, IC50 refers to the concentration that gives 50% inhibition. A high value points to lower potency.

Sequence of PIK3CB (Human) (P42338 whole entry, looked up): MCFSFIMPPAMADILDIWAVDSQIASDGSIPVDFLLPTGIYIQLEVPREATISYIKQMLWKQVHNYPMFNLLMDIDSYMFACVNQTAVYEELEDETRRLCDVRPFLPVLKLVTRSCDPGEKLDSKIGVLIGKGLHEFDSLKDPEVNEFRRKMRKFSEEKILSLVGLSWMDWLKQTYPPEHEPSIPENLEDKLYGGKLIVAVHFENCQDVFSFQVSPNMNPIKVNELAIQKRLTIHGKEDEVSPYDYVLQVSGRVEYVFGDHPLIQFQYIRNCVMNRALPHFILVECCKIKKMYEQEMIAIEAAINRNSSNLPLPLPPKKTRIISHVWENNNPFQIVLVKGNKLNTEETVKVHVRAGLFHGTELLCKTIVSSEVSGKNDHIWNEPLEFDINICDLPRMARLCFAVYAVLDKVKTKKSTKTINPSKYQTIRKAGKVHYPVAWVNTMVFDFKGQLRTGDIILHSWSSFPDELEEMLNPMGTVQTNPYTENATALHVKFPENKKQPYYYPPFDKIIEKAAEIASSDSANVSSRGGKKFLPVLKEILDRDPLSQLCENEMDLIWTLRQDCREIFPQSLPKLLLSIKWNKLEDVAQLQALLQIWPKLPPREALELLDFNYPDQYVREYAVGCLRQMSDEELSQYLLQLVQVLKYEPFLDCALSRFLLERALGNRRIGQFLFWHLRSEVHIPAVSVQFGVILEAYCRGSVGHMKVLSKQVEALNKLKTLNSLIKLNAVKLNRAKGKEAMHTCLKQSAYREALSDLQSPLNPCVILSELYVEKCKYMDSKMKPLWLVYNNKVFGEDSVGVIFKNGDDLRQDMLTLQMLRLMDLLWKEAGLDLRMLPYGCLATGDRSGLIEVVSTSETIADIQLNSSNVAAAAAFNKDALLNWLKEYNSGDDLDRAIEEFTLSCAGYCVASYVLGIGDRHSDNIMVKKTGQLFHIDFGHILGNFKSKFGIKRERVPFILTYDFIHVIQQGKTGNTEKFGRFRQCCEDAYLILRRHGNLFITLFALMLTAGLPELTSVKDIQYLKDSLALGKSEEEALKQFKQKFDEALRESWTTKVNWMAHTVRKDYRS
Sequence of PIK3CD (Human) (O00329 whole entry, looked up): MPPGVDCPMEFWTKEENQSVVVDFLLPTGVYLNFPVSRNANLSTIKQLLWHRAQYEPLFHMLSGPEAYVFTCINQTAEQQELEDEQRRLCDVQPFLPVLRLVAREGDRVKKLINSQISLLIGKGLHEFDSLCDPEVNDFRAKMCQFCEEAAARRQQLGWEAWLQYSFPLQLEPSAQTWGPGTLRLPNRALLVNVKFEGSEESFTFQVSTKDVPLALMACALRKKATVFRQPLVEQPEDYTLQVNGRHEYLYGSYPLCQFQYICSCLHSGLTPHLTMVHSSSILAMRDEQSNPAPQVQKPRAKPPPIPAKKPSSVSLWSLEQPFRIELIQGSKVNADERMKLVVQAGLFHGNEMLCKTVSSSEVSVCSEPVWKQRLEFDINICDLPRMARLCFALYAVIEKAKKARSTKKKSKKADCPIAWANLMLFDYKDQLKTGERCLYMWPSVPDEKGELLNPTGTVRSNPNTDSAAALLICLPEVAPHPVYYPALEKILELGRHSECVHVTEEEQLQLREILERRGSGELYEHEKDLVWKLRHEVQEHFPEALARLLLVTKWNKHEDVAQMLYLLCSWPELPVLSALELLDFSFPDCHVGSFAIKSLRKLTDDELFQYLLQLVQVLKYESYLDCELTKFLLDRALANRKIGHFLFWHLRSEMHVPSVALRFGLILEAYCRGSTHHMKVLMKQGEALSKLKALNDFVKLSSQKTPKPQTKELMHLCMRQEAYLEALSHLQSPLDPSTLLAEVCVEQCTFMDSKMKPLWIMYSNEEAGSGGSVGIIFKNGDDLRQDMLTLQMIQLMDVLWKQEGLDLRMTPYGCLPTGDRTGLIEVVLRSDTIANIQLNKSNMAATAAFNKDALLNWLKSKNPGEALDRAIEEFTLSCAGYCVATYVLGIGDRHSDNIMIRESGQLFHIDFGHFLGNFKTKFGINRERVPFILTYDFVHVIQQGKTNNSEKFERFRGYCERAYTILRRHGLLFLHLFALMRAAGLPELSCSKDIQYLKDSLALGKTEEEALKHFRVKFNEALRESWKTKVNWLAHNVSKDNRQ

The target of one test is PIK3CA (human) (UniProt P42336). Nature of the test: Assessment of PIK3CA Kinase Activity.
Sequence of PIK3CA (human) (P42336 whole entry, looked up): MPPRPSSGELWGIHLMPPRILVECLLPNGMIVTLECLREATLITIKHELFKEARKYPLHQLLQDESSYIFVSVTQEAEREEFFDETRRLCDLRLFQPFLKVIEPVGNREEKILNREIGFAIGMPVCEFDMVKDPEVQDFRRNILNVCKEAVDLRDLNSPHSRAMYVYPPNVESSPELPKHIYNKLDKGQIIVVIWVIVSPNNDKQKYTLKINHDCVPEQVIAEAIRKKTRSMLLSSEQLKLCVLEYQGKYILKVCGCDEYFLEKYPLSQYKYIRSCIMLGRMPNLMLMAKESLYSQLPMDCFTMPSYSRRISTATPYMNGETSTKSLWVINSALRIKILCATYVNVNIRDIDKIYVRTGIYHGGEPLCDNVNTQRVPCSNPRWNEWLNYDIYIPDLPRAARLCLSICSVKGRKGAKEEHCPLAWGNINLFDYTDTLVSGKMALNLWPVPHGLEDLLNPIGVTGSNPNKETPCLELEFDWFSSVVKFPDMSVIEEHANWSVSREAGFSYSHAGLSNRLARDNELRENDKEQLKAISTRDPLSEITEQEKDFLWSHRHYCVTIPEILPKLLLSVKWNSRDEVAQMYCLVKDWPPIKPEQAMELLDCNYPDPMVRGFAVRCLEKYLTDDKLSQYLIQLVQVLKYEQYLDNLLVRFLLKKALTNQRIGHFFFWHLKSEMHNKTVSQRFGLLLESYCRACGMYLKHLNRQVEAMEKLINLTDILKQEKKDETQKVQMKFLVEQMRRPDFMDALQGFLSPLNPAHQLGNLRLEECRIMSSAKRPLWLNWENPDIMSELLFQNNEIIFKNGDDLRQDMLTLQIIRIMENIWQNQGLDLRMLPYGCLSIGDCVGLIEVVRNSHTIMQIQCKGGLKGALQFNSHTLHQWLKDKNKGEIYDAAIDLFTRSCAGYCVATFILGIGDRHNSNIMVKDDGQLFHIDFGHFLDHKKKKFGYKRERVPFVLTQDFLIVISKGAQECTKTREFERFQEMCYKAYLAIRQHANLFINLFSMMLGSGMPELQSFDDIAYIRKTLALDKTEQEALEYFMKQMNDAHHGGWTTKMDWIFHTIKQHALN
The compound `CCNc1cc(-c2ccc3ncc4c(c3c2)n(-c2c(C)noc2C)c(=O)n4C)cnc1Cl` yielded a half-inhibitory concentration (IC50) of 139 nM.

`CCNC(=O)c1cc(-c2ccc3ncc4c(c3c2)n(-c2c(C)nn(C)c2C)c(=O)n4C)cnc1NC` had a concentration for half-maximal inhibition (IC50) of 81 nM.

In turn, `Cn1cc(-n2c(=O)n(C)c3cnc4ccc(-c5cncc(C(C)(C)O)c5)cc4c32)c(Cl)n1` returned a half-maximal inhibitory concentration (IC50) of 8 nM.

As to `CCc1ncc(-c2ccc3ncc4c(c3c2)n(-c2cn(C)nc2C)c(=O)n4C)cc1OC(C)C`, the IC50 stood at 41 nM.

`CCn1cc(-n2c(=O)n(C)c3cnc4ccc(-c5cnc(C)c(OC(C)C)c5)cc4c32)c(C)n1` displayed an IC50 of 4 nM.

In turn, `COCc1cc(-c2ccc3ncc4c(c3c2)n(-c2cn(C)nc2Cl)c(=O)n4C)cnc1N` yielded a concentration for half-maximal inhibition (IC50) of 9 nM. Against the preceding compound, the IC50 is about 2.2-fold higher.

Compound `CCn1cc(-n2c(=O)n(C)c3cnc4ccc(-c5ccc(-n6cccn6)cc5)cc4c32)c(C)n1` yielded a half-maximal inhibitory concentration (IC50) of 27 nM.

For the compound `COCc1ncc(-c2ccc3ncc4c(c3c2)n(-c2cn(C)nc2Cl)c(=O)n4C)cc1OC`, the concentration for half-maximal inhibition (IC50) turned out to be 15 nM. This IC50 is about 1.8-fold lower than that of the compound before.

Another test concerns the target PIK3CB (Human) (UniProt P42338). Nature of the test: Assessment of PIK3CB Kinase Activity.
Regarding `CCNc1cc(-c2ccc3ncc4c(c3c2)n(-c2c(C)noc2C)c(=O)n4C)cnc1Cl`, the concentration for half-maximal inhibition (IC50) came out at 101 nM.

With `CCNC(=O)c1cc(-c2ccc3ncc4c(c3c2)n(-c2c(C)nn(C)c2C)c(=O)n4C)cnc1NC`, the IC50 stood at 603 nM. Against the preceding compound, the IC50 is about 6-fold higher.

For the compound `Cn1cc(-n2c(=O)n(C)c3cnc4ccc(-c5cncc(C(C)(C)O)c5)cc4c32)c(Cl)n1`, the IC50 was 5 nM. This IC50 is about 120-fold lower than that of the compound before.

The compound `CCc1ncc(-c2ccc3ncc4c(c3c2)n(-c2cn(C)nc2C)c(=O)n4C)cc1OC(C)C` displayed an IC50 of 73 nM.

Take `CCn1cc(-n2c(=O)n(C)c3cnc4ccc(-c5cnc(C)c(OC(C)C)c5)cc4c32)c(C)n1`: the 50% inhibitory concentration (IC50) was 30 nM.

`COCc1cc(-c2ccc3ncc4c(c3c2)n(-c2cn(C)nc2Cl)c(=O)n4C)cnc1N` registered an IC50 of 7 nM. Against the preceding compound, the IC50 is about 4.3-fold lower.

With `COCc1ncc(-c2ccc3ncc4c(c3c2)n(-c2cn(C)nc2Cl)c(=O)n4C)cc1OC`, the IC50 came to 24 nM.

Another test addresses PIK3CD (Human) (UniProt O00329). Nature of the test: Assessment of PIK3CD Kinase Activity.
With `CCNc1cc(-c2ccc3ncc4c(c3c2)n(-c2c(C)noc2C)c(=O)n4C)cnc1Cl`, the IC50 turned out to be 22 nM.

For the compound `CCNC(=O)c1cc(-c2ccc3ncc4c(c3c2)n(-c2c(C)nn(C)c2C)c(=O)n4C)cnc1NC`, the IC50 is 39 nM.

The compound `Cn1cc(-n2c(=O)n(C)c3cnc4ccc(-c5cncc(C(C)(C)O)c5)cc4c32)c(Cl)n1` gave an IC50 of 5 nM. This IC50 is about 7.8-fold lower than that of the compound before.

The compound `CCc1ncc(-c2ccc3ncc4c(c3c2)n(-c2cn(C)nc2C)c(=O)n4C)cc1OC(C)C` displayed an IC50 of 18 nM.

`CCn1cc(-n2c(=O)n(C)c3cnc4ccc(-c5cnc(C)c(OC(C)C)c5)cc4c32)c(C)n1` showed a concentration for half-maximal inhibition (IC50) of 5 nM. Against the preceding compound, the IC50 is about 3.6-fold lower.

For `COCc1cc(-c2ccc3ncc4c(c3c2)n(-c2cn(C)nc2Cl)c(=O)n4C)cnc1N`, the 50% inhibitory concentration (IC50) was determined as 3 nM. Compared with the last compound, the IC50 is about 1.7-fold lower.

`CCn1cc(-n2c(=O)n(C)c3cnc4ccc(-c5ccc(-n6cccn6)cc5)cc4c32)c(C)n1` showed a half-maximal inhibitory concentration (IC50) of 75 nM.

`COCc1ncc(-c2ccc3ncc4c(c3c2)n(-c2cn(C)nc2Cl)c(=O)n4C)cc1OC` came in with an IC50 of 5 nM.
